Assay results from the NIST ThermoML archive (doi:10.1021/je0202073).

How the values were obtained:
[1] = excess molar enthalpy (molar enthalpy of mixing); xn = mol fraction of the nth substance listed; details: 101.3 kPa, Liquid, Calvet calorimetry
[2] = xn = mol fraction of the nth substance listed; details: 303.15 K, 101.3 kPa, Liquid

CCCC(=O)OCC [ethyl butanoate] + CC(C)(C)O
[1]
Details	excess molar enthalpy [kcal/mol]
299.15 K, x1 = 0.0438	0.0602
299.15 K, x1 = 0.0937	0.123
299.15 K, x1 = 0.1461	0.186
299.15 K, x1 = 0.1991	0.249
299.15 K, x1 = 0.2541	0.296
299.15 K, x1 = 0.3061	0.337
299.15 K, x1 = 0.3568	0.37
299.15 K, x1 = 0.4053	0.393
299.15 K, x1 = 0.4331	0.405
299.15 K, x1 = 0.4818	0.416
299.15 K, x1 = 0.5387	0.419
299.15 K, x1 = 0.6024	0.409
299.15 K, x1 = 0.6746	0.381
299.15 K, x1 = 0.7522	0.331
299.15 K, x1 = 0.833	0.251
299.15 K, x1 = 0.9172	0.143
318.15 K, x1 = 0.0394	0.0701
318.15 K, x1 = 0.0951	0.138
318.15 K, x1 = 0.158	0.203
318.15 K, x1 = 0.2201	0.26
318.15 K, x1 = 0.2807	0.313
318.15 K, x1 = 0.3377	0.349
318.15 K, x1 = 0.385	0.376
318.15 K, x1 = 0.4267	0.392
318.15 K, x1 = 0.4576	0.404
318.15 K, x1 = 0.4628	0.405
318.15 K, x1 = 0.4938	0.412
318.15 K, x1 = 0.5386	0.415
318.15 K, x1 = 0.5934	0.41
318.15 K, x1 = 0.6595	0.387
318.15 K, x1 = 0.7407	0.336
318.15 K, x1 = 0.8336	0.249
318.15 K, x1 = 0.9223	0.136

[2]
Details	excess molar volume [m3/mol]
x1 = 0.0445	9.2e-07
x1 = 0.0966	2.08e-06
x1 = 0.1518	3.11e-06
x1 = 0.1999	3.83e-06
x1 = 0.2466	4.41e-06
x1 = 0.3111	5.13e-06
